Source: the OligoGym collection
HELM strings list units from the 5' end as sugar, base in round brackets, then linkage (d deoxyribose, r ribose, m 2'-O-methyl, p phosphodiester). Strings are as the collection lists them; they lack the last nucleoside at the 3' end of the tested compound. [moe] = 2'-O-(2-methoxyethyl) (MOE); [sp] = phosphorothioate linkage; [m5C] = 5-methylcytosine

The substances below were run against FUS (assay: mouse, dose not given). Settings: ASO.
“RNA1{[moe](A)[sp].[moe](G)p.[moe](G)p.[moe](T)p.[moe](T)p.d(A)[sp].d([m5C])[sp].d(A)[sp].d(A)[sp].d(A)[sp].d(A)[sp].d(T)[sp].d(A)[sp].d(A)[sp].d([m5C])[sp].[moe](G)p.[moe](A)p.[moe](G)[sp].[moe](G)}$$$$ (last 3' nucleoside missing)” showed a 3 h FOB score of 5.75 score 0-7. In the case of “RNA1{[moe](A)[sp].[moe](G)p.[moe](G)p.[moe]([m5C])p.[moe](A)p.d(A)[sp].d([m5C])[sp].d(T)[sp].d(T)[sp].d([m5C])[sp].d([m5C])[sp].d([m5C])[sp].d([m5C])[sp].d(T)[sp].d(T)[sp].[moe](A)p.[moe](A)p.[moe](A)[sp].[moe](G)}$$$$ (last 3' nucleoside missing)”, the 3 h FOB score is reported as 1 score 0-7. For “RNA1{[moe](A)[sp].[moe](G)p.[moe](T)p.[moe](T)p.[moe](A)p.d([m5C])[sp].d(A)[sp].d(A)[sp].d(T)[sp].d(T)[sp].d(A)[sp].d([m5C])[sp].d(A)[sp].d(T)[sp].d(A)[sp].[moe](G)p.[moe](T)p.[moe]([m5C])[sp].[moe]([m5C])}$$$$ (last 3' nucleoside missing)”, the 3 h FOB score was 4 score 0-7. Work on “RNA1{[moe](A)[sp].[moe](G)p.[moe](T)p.[moe]([m5C])p.[moe](A)p.d(G)[sp].d(G)[sp].d(T)[sp].d(T)[sp].d(A)[sp].d(A)[sp].d([m5C])[sp].d([m5C])[sp].d(A)[sp].d(T)[sp].[moe](T)p.[moe](A)p.[moe]([m5C])[sp].[moe]([m5C])}$$$$ (last 3' nucleoside missing)” yielded a 3 h FOB score of 1 score 0-7. With “RNA1{[moe](A)[sp].[moe](T)p.[moe]([m5C])p.[moe](A)p.[moe](T)p.d([m5C])[sp].d(G)[sp].d(G)[sp].d(T)[sp].d(T)[sp].d(T)[sp].d([m5C])[sp].d([m5C])[sp].d([m5C])[sp].d(T)[sp].[moe](T)p.[moe](G)p.[moe]([m5C])[sp].[moe](A)}$$$$ (last 3' nucleoside missing)” the 3 h FOB score was 5.5 score 0-7. “RNA1{[moe](A)[sp].[moe]([m5C])p.[moe]([m5C])p.[moe](A)p.[moe](T)p.d([m5C])[sp].d([m5C])[sp].d(T)[sp].d(T)[sp].d(A)[sp].d(A)[sp].d(A)[sp].d(A)[sp].d([m5C])[sp].d([m5C])[sp].[moe](G)p.[moe](T)p.[moe](G)[sp].[moe](T)}$$$$ (last 3' nucleoside missing)” showed a 3 h FOB score of 1 score 0-7. “RNA1{[moe](G)[sp].[moe](A)p.[moe](G)p.[moe]([m5C])p.[moe](T)p.d(A)[sp].d(G)[sp].d(T)[sp].d(T)[sp].d(T)[sp].d([m5C])[sp].d(T)[sp].d(A)[sp].d(T)[sp].d(T)[sp].[moe](T)p.[moe](G)p.[moe]([m5C])[sp].[moe]([m5C])}$$$$ (last 3' nucleoside missing)” was tested, and the 3 h FOB score was 0 score 0-7. In the case of “RNA1{[moe](G)[sp].[moe](A)p.[moe]([m5C])p.[moe]([m5C])p.[moe]([m5C])p.d([m5C])[sp].d(T)[sp].d([m5C])[sp].d(T)[sp].d(T)[sp].d(A)[sp].d(T)[sp].d(T)[sp].d(A)[sp].d(A)[sp].[moe]([m5C])p.[moe]([m5C])p.[moe](T)[sp].[moe](G)}$$$$ (last 3' nucleoside missing)”, the 3 h FOB score is reported as 4 score 0-7. In the case of “RNA1{[moe](G)[sp].[moe](G)p.[moe](T)p.[moe](T)p.[moe](A)p.d([m5C])[sp].d(A)[sp].d(A)[sp].d(A)[sp].d(A)[sp].d(T)[sp].d(A)[sp].d(A)[sp].d([m5C])[sp].d(G)[sp].[moe](A)p.[moe](G)p.[moe](G)[sp].[moe](G)}$$$$ (last 3' nucleoside missing)”, the 3 h FOB score is reported as 3 score 0-7. With “RNA1{[moe](G)[sp].[moe](G)p.[moe](T)p.[moe](T)p.[moe](G)p.d(A)[sp].d([m5C])[sp].d(A)[sp].d(A)[sp].d([m5C])[sp].d([m5C])[sp].d(A)[sp].d(A)[sp].d(G)[sp].d(T)[sp].[moe](A)p.[moe](G)p.[moe](T)[sp].[moe](T)}$$$$ (last 3' nucleoside missing)” the 3 h FOB score was 5 score 0-7. “RNA1{[moe](G)[sp].[moe](G)p.[moe](T)p.[moe]([m5C])p.[moe](A)p.d([m5C])[sp].d(T)[sp].d(T)[sp].d(T)[sp].d(T)[sp].d(A)[sp].d(A)[sp].d(T)[sp].d(G)[sp].d(G)[sp].[moe](G)p.[moe](A)p.[moe](A)[sp].[moe]([m5C])}$$$$ (last 3' nucleoside missing)” was tested, and the 3 h FOB score was 4.75 score 0-7. “RNA1{[moe](G)[sp].[moe](G)p.[moe]([m5C])p.[moe](A)p.[moe](T)p.d(T)[sp].d([m5C])[sp].d(T)[sp].d(A)[sp].d([m5C])[sp].d([m5C])[sp].d([m5C])[sp].d(T)[sp].d(A)[sp].d([m5C])[sp].[moe]([m5C])p.[moe]([m5C])p.[moe]([m5C])[sp].[moe](T)}$$$$ (last 3' nucleoside missing)” was tested, and the 3 h FOB score was 1 score 0-7. With “RNA1{[moe](G)[sp].[moe](T)p.[moe](A)p.[moe](G)p.[moe](G)p.d(G)[sp].d(T)[sp].d([m5C])[sp].d([m5C])[sp].d(T)[sp].d(T)[sp].d([m5C])[sp].d(A)[sp].d(A)[sp].d(A)[sp].[moe](T)p.[moe]([m5C])p.[moe](T)[sp].[moe](T)}$$$$ (last 3' nucleoside missing)” the 3 h FOB score was 1 score 0-7. “RNA1{[moe](G)[sp].[moe](T)p.[moe](A)p.[moe](T)p.[moe](A)p.d([m5C])[sp].d([m5C])[sp].d(A)[sp].d(A)[sp].d([m5C])[sp].d(T)[sp].d(T)[sp].d([m5C])[sp].d(A)[sp].d([m5C])[sp].[moe]([m5C])p.[moe](A)p.[moe](T)[sp].[moe]([m5C])}$$$$ (last 3' nucleoside missing)” gave a 3 h FOB score of 1 score 0-7. “RNA1{[moe](G)[sp].[moe](T)p.[moe](T)p.[moe](A)p.[moe]([m5C])p.d(A)[sp].d(A)[sp].d(T)[sp].d(T)[sp].d(A)[sp].d([m5C])[sp].d(A)[sp].d(T)[sp].d(A)[sp].d(G)[sp].[moe](T)p.[moe]([m5C])p.[moe]([m5C])[sp].[moe](G)}$$$$ (last 3' nucleoside missing)” showed a 3 h FOB score of 4.5 score 0-7. In the case of “RNA1{[moe](G)[sp].[moe](T)p.[moe](T)p.[moe](T)p.[moe](A)p.d(T)[sp].d([m5C])[sp].d(T)[sp].d(G)[sp].d(A)[sp].d(A)[sp].d(T)[sp].d(T)[sp].d([m5C])[sp].d(G)[sp].[moe]([m5C])p.[moe]([m5C])p.[moe](A)[sp].[moe](T)}$$$$ (last 3' nucleoside missing)”, the 3 h FOB score is reported as 5.25 score 0-7. Work on “RNA1{[moe](G)[sp].[moe](T)p.[moe]([m5C])p.[moe](A)p.[moe](G)p.d(G)[sp].d(T)[sp].d(T)[sp].d(A)[sp].d(A)[sp].d([m5C])[sp].d([m5C])[sp].d(A)[sp].d(T)[sp].d(T)[sp].[moe](A)p.[moe]([m5C])p.[moe]([m5C])[sp].[moe](A)}$$$$ (last 3' nucleoside missing)” yielded a 3 h FOB score of 2.5 score 0-7. Work on “RNA1{[moe](G)[sp].[moe]([m5C])p.[moe](A)p.[moe](A)p.[moe](A)p.d(G)[sp].d(A)[sp].d(T)[sp].d(A)[sp].d(G)[sp].d(T)[sp].d(T)[sp].d(A)[sp].d([m5C])[sp].d([m5C])[sp].[moe]([m5C])p.[moe](T)p.[moe]([m5C])[sp].[moe]([m5C])}$$$$ (last 3' nucleoside missing)” yielded a 3 h FOB score of 1 score 0-7. Work on “RNA1{[moe](G)[sp].[moe]([m5C])p.[moe](A)p.[moe](A)p.[moe](T)p.d(G)[sp].d(T)[sp].d([m5C])[sp].d(A)[sp].d([m5C])[sp].d([m5C])[sp].d(T)[sp].d(T)[sp].d(T)[sp].d([m5C])[sp].[moe](A)p.[moe](T)p.[moe](A)[sp].[moe]([m5C])}$$$$ (last 3' nucleoside missing)” yielded a 3 h FOB score of 0 score 0-7. Substance “RNA1{[moe](G)[sp].[moe]([m5C])p.[moe]([m5C])p.[moe](A)p.[moe]([m5C])p.d(A)[sp].d(G)[sp].d(A)[sp].d([m5C])[sp].d(T)[sp].d([m5C])[sp].d(A)[sp].d(A)[sp].d(T)[sp].d(T)[sp].[moe](G)p.[moe](T)p.[moe](A)[sp].[moe](A)}$$$$ (last 3' nucleoside missing)” has a 3 h FOB score of 1 score 0-7. In the case of “RNA1{[moe](T)[sp].[moe](G)p.[moe](T)p.[moe](T)p.[moe](T)p.d(A)[sp].d(T)[sp].d([m5C])[sp].d(T)[sp].d(G)[sp].d(A)[sp].d(A)[sp].d(T)[sp].d(T)[sp].d([m5C])[sp].[moe](G)p.[moe]([m5C])p.[moe]([m5C])[sp].[moe](A)}$$$$ (last 3' nucleoside missing)”, the 3 h FOB score is reported as 3 score 0-7. “RNA1{[moe](T)[sp].[moe](T)p.[moe](A)p.[moe]([m5C])p.[moe](A)p.d(A)[sp].d(T)[sp].d(T)[sp].d(A)[sp].d([m5C])[sp].d(A)[sp].d(T)[sp].d(A)[sp].d(G)[sp].d(T)[sp].[moe]([m5C])p.[moe]([m5C])p.[moe](G)[sp].[moe](A)}$$$$ (last 3' nucleoside missing)” gave a 3 h FOB score of 2 score 0-7. For “RNA1{[moe](T)[sp].[moe]([m5C])p.[moe](A)p.[moe](T)p.[moe]([m5C])p.d(G)[sp].d(G)[sp].d(T)[sp].d(T)[sp].d(T)[sp].d([m5C])[sp].d([m5C])[sp].d([m5C])[sp].d(T)[sp].d(T)[sp].[moe](G)p.[moe]([m5C])p.[moe](A)[sp].[moe](G)}$$$$ (last 3' nucleoside missing)”, the 3 h FOB score was 2.25 score 0-7. Substance “RNA1{[moe](T)[sp].[moe]([m5C])p.[moe]([m5C])p.[moe](A)p.[moe]([m5C])p.d(G)[sp].d(A)[sp].d(A)[sp].d(T)[sp].d(T)[sp].d([m5C])[sp].d(A)[sp].d(G)[sp].d(T)[sp].d(T)[sp].[moe](T)p.[moe](G)p.[moe](T)[sp].[moe](G)}$$$$ (last 3' nucleoside missing)” has a 3 h FOB score of 4 score 0-7. “RNA1{[moe]([m5C])[sp].[moe]([m5C])[sp].[moe](T)[sp].[moe](G)[sp].[moe](G)[sp].d(T)[sp].d(T)[sp].d(A)[sp].d(T)[sp].d(T)[sp].d(T)[sp].d([m5C])[sp].d([m5C])[sp].d([m5C])[sp].d(A)[sp].[moe](T)[sp].[moe](G)[sp].[moe](A)[sp].[moe](G)}$$$$ (last 3' nucleoside missing)” gave a 3 h FOB score of 6 score 0-7. “RNA1{[moe]([m5C])[sp].[moe]([m5C])p.[moe](G)p.[moe](T)p.[moe](G)p.d(T)[sp].d(T)[sp].d(G)[sp].d(T)[sp].d(T)[sp].d(T)[sp].d([m5C])[sp].d([m5C])[sp].d([m5C])[sp].d([m5C])[sp].[moe](G)p.[moe](A)p.[moe](A)[sp].[moe](A)}$$$$ (last 3' nucleoside missing)” was tested, and the 3 h FOB score was 1 score 0-7.
